Measured values from US20220282285A1, “GENETICALLY-EDITED IMMUNE CELLS AND METHODS OF THERAPY” (REGENTS OF THE UNIVERSITY OF MINNESOTA, priority 2019, published 2022).
“Also recorded” adds a separate entry of the source.

Experiments:
primary T cells = experiment: Transfection efficiency: GFP or mTCR transgene expression by FACs on day 7 / day 14 post electroporation; format: cell-based, human; details: for stable transgene expression (percent GFP or mTCR): 14 days post-transfection, electroporated on day 0 or day 1 post stimulation (FIG. 18); for transgene expression (day 7 percent GFP or mTCR expression): T cells electroporated on day 0 or day 1 post stimulation (FIG. 17); for transgene expression (percent GFP+ or mTCR+ cells): day 14 post electroporation of plasmid donor on day 0 or day 1, Cas9, gRNA (FIG. 16)
Description: Electroporated T cells are analyzed by flow cytometry ˜24-48 hours after transfection to test for expression of GFP or other fluorochrome (marker for transgene expression). For knockout experiments, analysis for loss of target protein is conducted between 7-9 days post transfection. For knock-in experiments, measure marker expression on day 7 and day 14. Cells are prepared by washing with chilled 1×PBS with 0.5% FBS and stain according to manufacturer recommendations for each antibody.
Transfection efficiency was also assessed by examining the stable expression of the transgenes introduced by the plasmids. FIG. 15C is a graph showing percentage of GFP-expressing cells in each group of cells, and FIG. 15D is a graph showing percentage of mTCR-expressing cells in each group of cells. In these experiments, the primary T cells were transfected through electroporation with plasmid donor expressing GFP or mTCR on day 0 or 1, FACs was performed to examine the transgene expression on day 14 post electroporation.
This example examined the effects of treatment of electroporated T cells with DNase, RS-1, or both DNase and RS-1, on transfection efficiency. Primary T cells were transfected through electroporation with plasmid donor expressing GFP or mTCR on day 0 or 1, FACs was performed to examine the transgene expression on day 14 post electroporation.
FIGS. 17A-17D are FACs density plots of T cells on day 7 post electroporation.
FIGS. 18A-18B are FACs density plots of T cells on day 14 post electroporation.

[1] = tested on: T cells from donors 055330, 119866, 120534; experiment: FACs analysis of electroporation efficiency (mTCR), single or sequential electroporation; format: cell-based, human
T cells = experiment: Viable cell count and percentage of viable cells post-electroporation with supplements; format: cell-based; details: day 7 post-electroporation; NAC 10 mM for duration, anti-IFNAR2 antibody once at 10 μg/ml
Description: This example examined the effects of treatment with NAC, Akt VIII inhibitor, or anti-IFNAR2, on post-electroporation T cell survival as well as transfection efficiency. In these experiments, 2×10^6 cells in 100 μl were electroporated non-sequentially at 36 hr post-stimulation. After electroporation, the cells were recovered for 15 min, and then split equally among 5 different supplement conditions, as listed in Table 5. NAC was added to the medium at 10 mM for duration, Akt VIII inhibitor at 8 μM for duration, and anti-IFNAR2 antibody was added to the media once at 10 μg/ml. “Nuc” in Table 2 and FIGS. 22A-22D denotes the condition where exogenous DNA was added to be inserted into cell genome at 20 μg (“+20 μg), 35 μg (“+35 μg), or 50 μg (“+50 μg”).
FIG. 23A-FIG. 23C show graphs of viable cell count in each condition on day 2, 5, and 7 post-electroporation, respectively. FIG. 23D-FIG. 23F show graphs of percentage of viable cells in each condition on day 2, 5, and 7 post-electroporation, respectively.

Primary human T cells = experiment: Percent recovery of viable transfected cells 24 hr post electroporation by flow cytometry; format: cell-based; details: for percent recovery of the transfected cells: 24 hr post electroporation, DNase 10 μg/ml in recovery media
Description: This example examined the effect of DNase on post-electroporation T cell survival as well as transfection efficiency. Primary human T cells were cultured and stimulated with IL-2, IL-7, and IL-15. Later the T cells were either pulsed (control) or transfected with 1.5 μg of pMND-GFP plasmid (about 7.5 kb) at 36 hr or 48 hr post-stimulation. For comparison, DNase was added to recovery media of one group of transfected cells at 10 μg/ml. Cells were incubated in this recovery media following electroporation for 30 min. And after recovery, 2 times volume of complete media was added without any wash step (therefore diluted DNase remained in the media).
Cells were analyzed 24 hr post electroporation by flow cytometry to determine the percentage of recovered viable cells, as shown in FIG. 15A. FIG. 15B is a graph showing the percent recovery of the transfected cells in each group. DNase increased percent recovery in both “36 hr pMND-GFP” group, where cells were transfected with pMND-GFP plasmid at 36 hr post-stimulation, and “48 hr pMND-GFP” group, where cells were transfected with pMND-GFP at 48 hr post-stimulation.

activated T cell culture = experiment: Cell clumping / T cell survival 24 hours following electroporation with plasmid donor vector; format: cell-based, human; details: DNase in culture medium vs none
Description: • (a) Stimulated T cells are electroporated using the Neon Transfection System (100 uL or 10 ul Kit, Invitrogen, Life Technologies). • (b) Pellet cells and wash once with PBS or T buffer. • (c) Resuspend cells at a density of […] in 10 uL of T buffer for 10 ul tip, and 1×10^6 cells in 100 ul T buffer for 100 ul tips. • (d) Add specified mass of mRNA/DNA and electroporated at 1400 V, 10 ms, 3 pulses. • a. For knockout using all mRNA: • i. 100 ul tip: 15 ug Cas9 mRNA, 10 ug gRNA-RNA • ii. 10 ul tip: 1.5 ug Cas9 mRNA, 1 ug gRNA-RNA • b. When including plasmid donor for knock-in: • i. 100 ul tip: 5-20 ug plasmid • ii. 10 ul tip: 0.5-2 ug plasmid • c. For sequential electroporations: • On 0 hr timepoint deliver the amount of Cas9 specified in “a” • ii. At time point 0 hr and 6-24 hr, deliver gRNA and plasmid together in amounts specified in “a” and “b”. • (e) After transfection, plate cells at 3000 cells/ul in antibiotic free culture media containing 10 ug/ml DNase I and incubate at 37° C. in 5% CO2 for ˜20 minutes. • (f) After recovery period, add 2 times volume of antibiotic containing media to well and culture at 37° C. in 5% CO2. rAAV Transduction of CD3+ T Cells • (a) Thaw rAAV on ice and mix well prior to addition to cells. • (b) Add specified MOI at the following timepoints post-electroporation • a. For Cas9 mRNA edited cells: • i. Add virus 4-6 hours post • b. […]

[2] = donor 055330, 36 hours post stimulation or 36 hours post stimulation and 6 hours post initial electroporation
[3] = donor 119866, 36 hours post stimulation or 36 hours post stimulation and 6 hours post initial electroporation
[4] = donors 055330 and 119866 at 24 hours post initial electroporation, donor 120534 at 36 hours post stimulation or plus 6 hours (FIG. 21)
[5] = T cells transfected on day 1, day 14 post electroporation, plasmid donor, Cas9, gRNA
[6] = day 14 post electroporation of plasmid donor on day 0 or 1, with vs without DNase

Q: Which results are given for `O=C(Nc1ccc(Br)cc1)c1ccc(Br)c(S(=O)(=O)NCc2ccccc2)c1` [RS-1, 3-((benzylamino)sulfonyl)-4-bromo-N-(4-bromophenyl)benzamide]?
A: stable transgene expression (percent GFP or mTCR) (primary T cells): increased; transgene expression (day 7 percent GFP or mTCR expression) (primary T cells): increased; transgene expression (percent GFP+ or mTCR+ cells) (primary T cells): increased; transgene (mTCR) expression, electroporation efficiency [1, 2]: increased; transgene (mTCR) expression, electroporation efficiency [1, 3]: increased; transgene (mTCR) expression, electroporation efficiency [1, 4]: increased

Q: Which cell viability (T cells) does the source give for `CC(=O)N[C@@H](CS)C(=O)O` [NAC, N-acetyl-cysteine] here?
A: Its cell viability is “increased”.

Q: For DNase, which “stable transgene expression (percent GFP or mTCR)” value (primary T cells) is on record?
A: The value was “increased”.

Q: And the “GFP expression (percentage of GFP+ cells)” value (primary T cells; [5])?
A: The value was “promoted”.

Q: And the “mTCR expression (percentage of mTCR+ cells)” value (primary T cells; [5])?
A: Its value is “promoted”.

Q: And the “transgene expression (day 7 percent GFP or mTCR expression)” value (primary T cells)?
A: Its value is “increased”.

Q: And the “integration efficiency, percentage of GFP-expressing cells” value (primary T cells; [6])?
A: The value was “increased”.

Q: What about the “integration efficiency, percentage of mTCR-expressing cells” value (primary T cells; [6]) of the same compound?
A: The value was “increased”.

Q: What about the “transgene expression (percent GFP+ or mTCR+ cells)” value (primary T cells) of the same compound?
A: Its value is “increased”.

Q: What about the “transgene (mTCR) expression, electroporation efficiency” value (“transgene (mTCR) expression” for short) [1, 2] of the same compound?
A: Its value is “increased”.

Q: What about the “transgene (mTCR) expression” value [1, 3] of the same compound?
A: Its value is “increased”.

Q: And the “transgene (mTCR) expression” value [1, 4]?
A: Its value is “increased”.

Q: What about the “lymphocyte survival after transfection” value (Primary human T cells; 24 hours post-electroporation of a plasmid, culture with vs without DNase) of the same compound?
A: Its value is “increased”.

Q: And the “percent recovery of the transfected cells” value (Primary human T cells; pMND-GFP plasmid at 36 hr post-stimulation)?
A: The value was “increased”.

Q: What about the “percent recovery of the transfected cells” value (Primary human T cells; pMND-GFP plasmid at 48 hr post-stimulation) of the same compound?
A: The value was “increased”.

Q: And the “cell clumping and floating dead cells” value (activated T cell culture)?
A: The value was “no cell clumps were visible; also recorded: did not show cell clumping or floating cell corpses”.
